Source: PubChem BioAssay AID248 (DTP/NCI, 2004)
Toxic doses and inconclusive results are not listed.

Tested on: L1210 leukemia ip in BDF1 mice, survival T/C
Assay: NCI In Vivo Anticancer Drug Screen. Data for tumor model L1210 Leukemia (intraperitoneal) in B6D2F1 (BDF1) mice
Details: endpoint: mean survival time, higher = longer survival
Summary of the method: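 Transplanted-tumor mice were given test agent; controls received vehicle only. Survival readings from the two groups were divided (treated over control).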

[1] = dose: 100.0 mg/kg/injection, schedule: Q04DX003 (ip), vehicle: Klucel (hydroxypropylcellulose) (HPC)
[2] = dose: 200.0 mg/kg/injection, schedule: Q04DX003 (ip), vehicle: Klucel (hydroxypropylcellulose) (HPC)
[3] = dose: 400.0 mg/kg/injection, schedule: Q04DX003 (ip), vehicle: Klucel (hydroxypropylcellulose) (HPC)
[4] = dose: 100.0 mg/kg/injection, schedule: Q01DX009 (ip), vehicle: Klucel (hydroxypropylcellulose) (HPC)
[5] = dose: 200.0 mg/kg/injection, schedule: Q01DX009 (ip), vehicle: Klucel (hydroxypropylcellulose) (HPC)
[6] = dose: 400.0 mg/kg/injection, schedule: Q01DX009 (ip), vehicle: Klucel (hydroxypropylcellulose) (HPC)
[7] = dose: 5.0 mg/kg/injection, schedule: Q01DX001 (ip), vehicle: saline
[8] = dose: 10.0 mg/kg/injection, schedule: Q01DX001 (ip), vehicle: saline
[9] = dose: 20.0 mg/kg/injection, schedule: Q01DX001 (ip), vehicle: saline
[10] = dose: 100.0 mg/kg/injection, schedule: Q01DX001 (ip), vehicle: saline with Tween-80
[11] = dose: 200.0 mg/kg/injection, schedule: Q01DX001 (ip), vehicle: saline with Tween-80
[12] = dose: 400.0 mg/kg/injection, schedule: Q01DX001 (ip), vehicle: saline with Tween-80
[13] = dose: 25.0 mg/kg/injection, schedule: Q04DX002 (ip), vehicle: Klucel (hydroxypropylcellulose) (HPC)
[14] = dose: 100.0 mg/kg/injection, schedule: Q04DX002 (ip), vehicle: Klucel (hydroxypropylcellulose) (HPC)
[15] = dose: 200.0 mg/kg/injection, schedule: Q04DX002 (ip), vehicle: Klucel (hydroxypropylcellulose) (HPC)
[16] = dose: 100.0 mg/kg/injection, schedule: Q04DX003 (ip), vehicle: saline
[17] = dose: 200.0 mg/kg/injection, schedule: Q04DX003 (ip), vehicle: saline
[18] = dose: 400.0 mg/kg/injection, schedule: Q04DX003 (ip), vehicle: saline
[19] = dose: 100.0 mg/kg/injection, schedule: Q01DX001 (ip), vehicle: carboxymethylcellulose (CMC)
[20] = dose: 200.0 mg/kg/injection, schedule: Q01DX001 (ip), vehicle: carboxymethylcellulose (CMC)
[21] = dose: 400.0 mg/kg/injection, schedule: Q01DX001 (ip), vehicle: carboxymethylcellulose (CMC)
[22] = dose: 40.0 mg/kg/injection, schedule: Q01DX001 (ip), vehicle: saline
[23] = dose: 50.0 mg/kg/injection, schedule: Q04DX002 (ip), vehicle: saline with Tween-80
[24] = dose: 100.0 mg/kg/injection, schedule: Q04DX002 (ip), vehicle: saline with Tween-80
[25] = dose: 200.0 mg/kg/injection, schedule: Q04DX002 (ip), vehicle: saline with Tween-80
[26] = dose: 100.0 mg/kg/injection, schedule: Q01DX001 (ip), vehicle: saline
[27] = dose: 200.0 mg/kg/injection, schedule: Q01DX001 (ip), vehicle: saline
[28] = dose: 400.0 mg/kg/injection, schedule: Q01DX001 (ip), vehicle: saline

`CCOC1(c2ccccc2)C(c2ccccc2)N1C(=O)c1ccc([N+](=O)[O-])cc1` (stereo not drawn) was tested, and the T/C [1] was 92 % of control, the T/C [2] was 91 % of control and the T/C [3] was 92 % of control.
`Cc1ccc(OC(=O)/C=C/C(=O)Oc2ccc(C)cc2)cc1` was tested, and the T/C [4] was 97 % of control, the T/C [1] was 105 % of control and the T/C [5] was 95 % of control. The T/C [2] was 98 % of control, the T/C [6] was 88 % of control and the T/C [3] was 108 % of control.
In the case of `CC(=O)N(N=O)c1ccc(N(N=O)C(C)=O)cc1`, the T/C [7] is reported as 106 % of control, the T/C [8] is reported as 97 % of control and the T/C [9] is reported as 112 % of control.
`Nc1ncnc2nc(-c3ccc(CNC(=O)CCc4ccc(S(=O)(=O)F)cc4)cc3)[nH]c12` was tested, and the T/C [10] was 89 % of control, the T/C [11] was 89 % of control and the T/C [12] was 89 % of control.
For `Cc1[nH]nc2c(NO)ncnc12`, the T/C (dose: 100.0 mg/kg/injection, schedule: Q01DX001 (ip), vehicle: other) was 98 % of control, the T/C (dose: 200.0 mg/kg/injection, schedule: Q01DX001 (ip), vehicle: other) was 98 % of control and the T/C (dose: 400.0 mg/kg/injection, schedule: Q01DX001 (ip), vehicle: other) was 102 % of control.
With `Cc1nc2sc3c(c2c(=S)[nH]1)CCCC3` the T/C (dose: 100.0 mg/kg/injection, schedule: Q01DX001 (ip), vehicle: saline sonified) was 86 % of control, the T/C (dose: 200.0 mg/kg/injection, schedule: Q01DX001 (ip), vehicle: saline sonified) was 89 % of control and the T/C (dose: 400.0 mg/kg/injection, schedule: Q01DX001 (ip), vehicle: saline sonified) was 91 % of control.
With `CC([NH-])C(C)[NH-].[Cl][Pt+2][Cl]` (stereo not drawn) the T/C (dose: 3.1 mg/kg/injection, schedule: Q04DX002 (ip), vehicle: Klucel (hydroxypropylcellulose) (HPC)) was 124 % of control, the T/C (dose: 6.25 mg/kg/injection, schedule: Q04DX002 (ip), vehicle: Klucel (hydroxypropylcellulose) (HPC)) was 153 % of control and the T/C [13] was 92 % of control.
In the case of `C/C(=N/NC(=O)c1ccc(N)cc1)c1ccc(C)cc1`, the T/C [14] is reported as 110 % of control and the T/C [15] is reported as 89 % of control.
`CCCCCCCCCCCCCCCCCCNC(=S)OC` was tested, and the T/C [14] was 91 % of control, the T/C [15] was 97 % of control and the T/C (dose: 400.0 mg/kg/injection, schedule: Q04DX002 (ip), vehicle: Klucel (hydroxypropylcellulose) (HPC)) was 102 % of control.
For `O=Cc1[nH]c(=S)[nH]c(=O)c1Cc1ccc2ccccc2c1`, the T/C [10] was 104 % of control and the T/C [11] was 104 % of control.
In the case of `c1ccc(C2=NCCCO2)cc1`, the T/C (dose: 12.5 mg/kg/injection, schedule: Q01DX009 (ip), vehicle: saline with Tween-80) is reported as 100 % of control, the T/C (dose: 25.0 mg/kg/injection, schedule: Q01DX009 (ip), vehicle: saline with Tween-80) is reported as 103 % of control and the T/C (dose: 50.0 mg/kg/injection, schedule: Q01DX009 (ip), vehicle: saline with Tween-80) is reported as 102 % of control. For the same compound, the T/C (dose: 50.0 mg/kg/injection, schedule: Q04DX003 (ip), vehicle: saline) was 91 % of control, the T/C (dose: 100.0 mg/kg/injection, schedule: Q01DX009 (ip), vehicle: saline with Tween-80) was 102 % of control and the T/C [16] was 96 % of control.
With `NC(CCCCn1nnc2c(=O)[nH]cnc21)C(=O)O` (stereo not drawn) the T/C [16] was 106 % of control, the T/C [17] was 103 % of control and the T/C [18] was 97 % of control.
For `CC(CO)(CO)N=Cc1ccc(N(CCCl)CCCl)cc1`, the T/C [19] was 106 % of control, the T/C [20] was 97 % of control and the T/C [21] was 101 % of control.
`NC(CSS(=O)(=O)O)=NCCCc1ccccc1` was tested, and the T/C (dose: 12.5 mg/kg/injection, schedule: Q04DX002 (ip), vehicle: Klucel (hydroxypropylcellulose) (HPC)) was 97 % of control and the T/C [13] was 108 % of control.
`c1cc[c]([Sn]([O][Sn]([c]2ccccc2)([c]2ccccc2)[c]2ccccc2)([c]2ccccc2)[c]2ccccc2)cc1` was tested, and the T/C [7] was 102 % of control, the T/C [8] was 100 % of control and the T/C [9] was 102 % of control. The T/C [22] was 93 % of control.
In the case of `Nc1nnnc2c1ncn2C1CCCC1`, the T/C (dose: 75.0 mg/kg/injection, schedule: Q01DX001 (ip), vehicle: other) is reported as 97 % of control.
`Cc1nc(C)c(I)s1` was tested, and the T/C [4] was 93 % of control, the T/C [1] was 98 % of control and the T/C [5] was 97 % of control. The T/C [2] was 93 % of control, the T/C [6] was 94 % of control and the T/C [3] was 104 % of control.
For `COc1c([N+](=O)[O-])cc(-c2ccccc2)cc1[N+](=O)[O-]`, the T/C [16] was 87 % of control, the T/C [17] was 87 % of control and the T/C [18] was 87 % of control.
For `Cc1ccc([Si](C)Cl)cc1`, the T/C (dose: 100.0 mg/kg/injection, schedule: Q04DX003 (ip), vehicle: saline with Tween-80) was 98 % of control, the T/C (dose: 200.0 mg/kg/injection, schedule: Q04DX003 (ip), vehicle: saline with Tween-80) was 94 % of control and the T/C (dose: 400.0 mg/kg/injection, schedule: Q04DX003 (ip), vehicle: saline with Tween-80) was 90 % of control.
`NC(=O)C1(Nc2ccc(-c3ccc(Cl)cc3)cc2)CCCC1` was tested, and the T/C (dose: 50.0 mg/kg/injection, schedule: Q01DX001 (ip), vehicle: carboxymethylcellulose (CMC)) was 96 % of control, the T/C [19] was 93 % of control and the T/C [20] was 90 % of control. The T/C [21] was 87 % of control.
For `O=[N+]([O-])c1cccc(S(=O)(=O)O)c1.[Fe]`, the T/C [16] was 95 % of control and the T/C [17] was 89 % of control.
In the case of `CCCCCCCCCCCc1cccc2ccccc12`, the T/C [23] is reported as 92 % of control, the T/C [24] is reported as 89 % of control and the T/C [25] is reported as 92 % of control. For the same compound, the T/C (dose: 400.0 mg/kg/injection, schedule: Q04DX002 (ip), vehicle: saline with Tween-80) was 95 % of control.
In the case of `NNCCC(=O)O`, the T/C [26] is reported as 107 % of control, the T/C [27] is reported as 102 % of control and the T/C [28] is reported as 115 % of control.
`CON(C)C(=O)N1c2ccccc2Sc2ccccc21` was tested, and the T/C (dose: 25.0 mg/kg/injection, schedule: Q04DX002 (ip), vehicle: saline with Tween-80) was 88 % of control, the T/C [23] was 95 % of control and the T/C [24] was 103 % of control. The T/C [25] was 95 % of control.
`CC12C=CC(CC1)C2(C)C` (stereo not drawn) was tested, and the T/C (dose: 100.0 mg/kg/injection, schedule: Q01DX009 (ip), vehicle: saline) was 95 % of control and the T/C (dose: 200.0 mg/kg/injection, schedule: Q01DX009 (ip), vehicle: saline) was 92 % of control.
For `Cc1c(O)ccc2ccc(=O)oc12`, the T/C [19] was 98 % of control, the T/C [20] was 90 % of control and the T/C [21] was 93 % of control.
For `Cc1c(Cl)ccc2c(C(=O)O)cc(-c3ccc(Cl)cc3)nc12`, the T/C [19] was 100 % of control, the T/C [20] was 94 % of control and the T/C [21] was 92 % of control.
With `O=C(Nc1ccc([N+](=O)[O-])cc1)N(c1cc(Cl)ccn1)C1CCCCC1` the T/C [26] was 96 % of control, the T/C [27] was 90 % of control and the T/C [28] was 96 % of control.
`CNCC(O)c1ccccc1` (stereo not drawn) was tested, and the T/C [26] was 96 % of control, the T/C [16] was 94 % of control and the T/C [27] was 97 % of control. For the same compound, the T/C [17] was 96 % of control, the T/C [28] was 92 % of control and the T/C [18] was 100 % of control.
`CCO/C(=C\[P+](c1ccccc1)(c1ccccc1)c1ccccc1)c1ccccc1` was tested, and the T/C [7] was 90 % of control, the T/C [8] was 93 % of control and the T/C [9] was 95 % of control. The T/C [22] was 95 % of control.
For `BrC1=C(Br)CCCC1`, the T/C [16] was 91 % of control, the T/C [17] was 91 % of control and the T/C [18] was 93 % of control.
For `C=C(Cl)CSC1=NCCS1`, the T/C (dose: 100.0 mg/kg/injection, schedule: Q04DX002 (sc), vehicle: olive oil, sesame oil, peanut oil) was 90 % of control, the T/C (dose: 200.0 mg/kg/injection, schedule: Q04DX002 (sc), vehicle: olive oil, sesame oil, peanut oil) was 100 % of control and the T/C (dose: 400.0 mg/kg/injection, schedule: Q04DX002 (sc), vehicle: olive oil, sesame oil, peanut oil) was 100 % of control.
For `CC1CCCC(c2ccccc2)C1` (stereo not drawn), the T/C [10] was 97 % of control, the T/C [11] was 102 % of control and the T/C [12] was 101 % of control.
`Cc1cc(C)c(C(=O)c2ccccc2C(=O)OC(=O)c2ccccc2C(=O)c2c(C)cc(C)cc2C)c(C)c1` was tested, and the T/C [24] was 88 % of control.
For `CCCNC(=O)Nc1ccc(C)cc1`, the T/C [19] was 116 % of control, the T/C [20] was 94 % of control and the T/C [21] was 103 % of control.
